Measured values as given in the supplement of paper PMC11451515.

Tests used:
NOMO1 [1] = assay: cell viability relative to DMSO control; higher = less cytotoxic; conditions: 48 h
How it was run: (§1)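 Before seeding, each leukemia line was adapted for at least four passages in each medium. NOMO1 or SEM cells (500 cells/well) and P12-Ichikawa cells (1000 cells/well) went into 1536-well plates at 5 μl, then received library compounds in DMSO by pin dosing across 11 threefold concentrations, 47 μM to 0.79 nM. Readout was CellTiter-Glo One luminescence after 48 h at 37°C, and viability is given as a per-plate percentage of DMSO wells, with cell-free wells as background.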

P12-Ichikawa [2] = assay: as above; conditions: HPLM + 10% dialyzed FBS, 48 h
How it was run: as §1

SEM cells [3] = assay: as above; conditions: 48 h
How it was run: as §1

NOMO1 [4] = assay: AUC of viability dose-response curve (% viability x log10 dose units); higher = less sensitive; conditions: 48 h
How it was run: (§2)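 In 1536-well plates, leukemia cells adapted to each medium (500 or 1000 cells/well) were exposed for 48 h at 37°C to library compounds in DMSO across 11 threefold doses, 47 μM down to 0.79 nM. Viability was read by CellTiter-Glo One luminescence and normalised per plate to DMSO and cell-free wells. A four-parameter log-logistic fit over log10 doses was integrated by trapezoidal rule. This yielded the area under the curve, with over-full-viability curves scaled and quality-control failures dropped.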

P12-Ichikawa [5] = assay: as above; conditions: 48 h
How it was run: as §2

SEM cells [6] = assay: as above; conditions: 48 h
How it was run: as §2

C[S+](=O)([O-])c1ccc(C(=O)Nc2ccc(Cl)c(-c3ccccn3)c2)c(Cl)c1
cell viability [%]
Conditions	HPLM + 10% dialyzed FBS	RPMI 5 mM glucose + 10% FBS	RPMI 5 mM glucose + 10% dialyzed FBS
NOMO1 [1], 0.000781 µM	–	–	119
NOMO1 [1], 0.00234 µM	–	–	110
NOMO1 [1], 0.00702 µM	–	–	138
NOMO1 [1], 0.0211 µM	–	–	143
NOMO1 [1], 0.0632 µM	–	–	130
NOMO1 [1], 0.19 µM	–	–	136
NOMO1 [1], 0.569 µM	–	–	139
NOMO1 [1], 1.71 µM	–	–	144
NOMO1 [1], 5.12 µM	–	–	144
NOMO1 [1], 15.4 µM	–	–	135
NOMO1 [1], 46.1 µM	–	–	128
SEM cells [3], 0.000781 µM	97.9	100	104
SEM cells [3], 0.00234 µM	98.7	117	98.5
SEM cells [3], 0.00702 µM	129	129	136
SEM cells [3], 0.0211 µM	116	123	120
SEM cells [3], 0.0632 µM	126	126	131
SEM cells [3], 0.19 µM	127	150	111
SEM cells [3], 0.569 µM	131	121	138
SEM cells [3], 1.71 µM	122	122	142
SEM cells [3], 5.12 µM	140	153	127
SEM cells [3], 15.4 µM	126	25.2	140
SEM cells [3], 46.1 µM	144	139	134

Conditions	AUC of viability dose-response curve	cell viability [%]
NOMO1 [4], HPLM + 10% dialyzed FBS	445	–
NOMO1 [4], RPMI 5 mM glucose + 10% FBS	468	–
NOMO1 [4], RPMI 5 mM glucose + 10% dialyzed FBS	465	–
P12-Ichikawa [2], 0.000781 µM	–	113
P12-Ichikawa [2], 0.00234 µM	–	113
P12-Ichikawa [2], 0.00702 µM	–	123
P12-Ichikawa [2], 0.0211 µM	–	132
P12-Ichikawa [2], 0.0632 µM	–	131
P12-Ichikawa [2], 0.19 µM	–	135
P12-Ichikawa [2], 0.569 µM	–	136
P12-Ichikawa [2], 1.71 µM	–	125
P12-Ichikawa [2], 5.12 µM	–	131
P12-Ichikawa [2], 15.4 µM	–	126
P12-Ichikawa [2], 46.1 µM	–	127
P12-Ichikawa [5], HPLM + 10% dialyzed FBS	464	–
P12-Ichikawa [5], RPMI 5 mM glucose + 10% FBS	454	–
P12-Ichikawa [5], RPMI 5 mM glucose + 10% dialyzed FBS	462	–

CC(/C=C1\SC(=S)N(CC(=O)O)C1=O)=C\c1ccccc1
AUC of viability dose-response curve
Conditions	NOMO1 [4]	P12-Ichikawa [5]	SEM cells [6]
HPLM + 10% dialyzed FBS	452	461	471
RPMI 5 mM glucose + 10% FBS	454	440	420
RPMI 5 mM glucose + 10% dialyzed FBS	472	457	476

NC/1=N/C(=O)N(/C=C1F)[C@H]2CS[C@H](CO)O2
cell viability [%]
Conditions	HPLM + 10% dialyzed FBS	RPMI 5 mM glucose + 10% FBS	RPMI 5 mM glucose + 10% dialyzed FBS
NOMO1 [1], 0.000781 µM	–	108	–
NOMO1 [1], 0.00234 µM	–	121	–
NOMO1 [1], 0.00702 µM	–	121	–
NOMO1 [1], 0.0211 µM	–	127	–
NOMO1 [1], 0.0632 µM	–	133	–
NOMO1 [1], 0.19 µM	–	157	–
NOMO1 [1], 0.569 µM	–	141	–
NOMO1 [1], 1.71 µM	–	139	–
NOMO1 [1], 5.12 µM	–	131	–
NOMO1 [1], 15.4 µM	–	151	–
NOMO1 [1], 46.1 µM	–	141	–
SEM cells [3], 0.000781 µM	83.9	–	101
SEM cells [3], 0.00234 µM	107	–	118
SEM cells [3], 0.00702 µM	107	–	115
SEM cells [3], 0.0211 µM	115	–	152
SEM cells [3], 0.0632 µM	124	–	126
SEM cells [3], 0.19 µM	116	–	121
SEM cells [3], 0.569 µM	123	–	144
SEM cells [3], 1.71 µM	126	–	131
SEM cells [3], 5.12 µM	143	–	137
SEM cells [3], 15.4 µM	142	–	144
SEM cells [3], 46.1 µM	148	–	153

AUC of viability dose-response curve
Conditions	HPLM + 10% dialyzed FBS	RPMI 5 mM glucose + 10% FBS	RPMI 5 mM glucose + 10% dialyzed FBS
NOMO1 [4]	472	449	462
SEM cells [6]	392	442	418

CC(=O)NCCC(=O)N[C@@H](CCC(N)=O)C(=O)N[C@@H](CO)C(=O)N[C@@H](CCC(N)=O)C(=O)N[C@@H](CCC(N)=O)C(=O)N[C@H](C(=O)N[C@@H](Cc1ccccc1)C(=O)N[C@]1(C)CCCCCC/C=C\CCC[C@@](C)(C(=O)N[C@@H](CCC(N)=O)C(=O)N[C@@H](CC(N)=O)C(N)=O)NC(=O)[C@H](CC(C)C)NC(=O)[C@H](CC(C)C)NC(=O)[C@@H](CCCNC(=N)N)NC(=O)[C@H](Cc2c[nH]c3ccccc23)NC(=O)[C@H](CC(C)C)NC(=O)[C@H](CC(N)=O)NC1=O)[C@H](C)O
AUC of viability dose-response curve
Conditions	NOMO1 [4]	P12-Ichikawa [5]	SEM cells [6]
HPLM + 10% dialyzed FBS	456	461	376
RPMI 5 mM glucose + 10% FBS	451	460	321
RPMI 5 mM glucose + 10% dialyzed FBS	426	437	346

O=C(CCN1CCN(C(=O)OCc2cc(Cl)cc(Cl)c2)CC1)c1ccc2[nH]c(=O)oc2c1
AUC of viability dose-response curve
Conditions	NOMO1 [4]	P12-Ichikawa [5]	SEM cells [6]
HPLM + 10% dialyzed FBS	470	466	472
RPMI 5 mM glucose + 10% FBS	431	454	465
RPMI 5 mM glucose + 10% dialyzed FBS	448	459	469

N[S+](=O)([O-])NCCNc1nonc1/C(=N/O)Nc1ccc(F)c(Br)c1
AUC of viability dose-response curve
Conditions	NOMO1 [4]	P12-Ichikawa [5]	SEM cells [6]
HPLM + 10% dialyzed FBS	353	354	435
RPMI 5 mM glucose + 10% FBS	373	389	375
RPMI 5 mM glucose + 10% dialyzed FBS	411	401	414
